Values belong to the compound of their own block, whether it stands above or below them.
Experiments:
[1] = tested on: HCT116 cells; assay: Measurement of effect of inhibiting cancer cell proliferation (MTT); assay type: cell-based, human; conditions: for inhibition at 100 µM: HCT-116, 100 μM, read-out: Cell Growth Inhibition (%) at 100 μM
How it was run: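 HCT116 cells (~5,000/well, DMEM with 10% FBS) treated 48 h with compound at 0.39–100 μM, metformin hydrochloride control at 0.1–25 mM. Viability by MTT (3 h, formazan in DMSO, A560) relative to untreated wells; GIC50 from the viability curve, also viability at 100 μM.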

[2] = tested on: AMPKα; assay: Measurement of AMPK activation effect (AMPKα Thr172 phosphorylation immunoassay) in MCF7 cells; assay type: cell-based, human; conditions: 24 hours; for AMPK activation effect at 10 μM (%) / AMPK activation effect at 50 μM (%): relative to untreated cells; for AMPK activation effect AC150: concentration at which AMPK activation reached 150%
How it was run: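 MCF7 cells in DMEM/10% FBS were treated 24 h with derivatives at 5, 10 and 50 μM (metformin hydrochloride control, 0.05–10 mM). AMPKα Thr172 phosphorylation was measured by immunoassay on 20 μg lysate. AC150 (concentration giving 150% activation) came from concentration–response curves, with activation also reported at fixed concentrations.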

[3] = Solubility in water of hydrochloride and acetate salts; assay type: physicochemical; conditions: room temperature
Protocol: The solubilities in water of the hydrochlorides prepared in Examples 26, 27, 32, 33, 48, 49, 53 and 54, and the solubilities in water of the acetates prepared in Examples 70 to 77, were compared.
The experimental conditions and methods are described, as follows.
1) 1 ml of distilled water is added to a container including 5 mg of salt at room temperature.
2) The resulting mixture is stirred for 10 minutes, and then kept at room temperature for 1 hour.
3) Undissolved residual salt is recovered and weighed.
4) The ratio of the amount of the recovered salt and the amount of the dissolved salt is calculated.
5) Operations 1) to 4) are repeatedly performed with increasing amount (i.e., 10, 15, 20, 25 and 30 mg) of salt.
The experimental procedures were performed for each of the hydrochlorides of Examples 26, 27, 32, 33, 48, 49, 53 and 54 and the acetates of Examples 70 to 77. The comparative solubilities obtained using the hydrochlorides of Examples 26, 27, 32, 33, 48, 49, 53 and 54 and the acetates of Examples 70 to 77 are listed in the following Table 1.

[4] = content 5 mg/1 ml distilled water
[5] = content 10 mg/1 ml distilled water
[6] = content 15 mg/1 ml distilled water
[7] = content 20 mg/1 ml distilled water
[8] = content 25 mg/1 ml distilled water
[9] = content 30 mg/1 ml distilled water

SMILES: Cl.N=C(NC(=N)N1CCCC1)Nc1ccc(OC(F)(F)F)cc1 [Example 32, N1-pyrrolidine-N5-(4-trifluoromethoxy)phenyl biguanide hydrochloride]
inhibition at 100 µM ([1]; Homo sapiens, 48 hours): 97.6%
GI50 ([1]; Homo sapiens, HCT-116, 48 h): 23.6 µM
AMPK activation effect at 10 μM (%) [2]: 204%
AMPK activation effect at 50 μM (%) [2]: 680%
AMPK activation effect AC150 [2]: 5.1 µM
Solubility in water (%), hydrochloride salt [3, 4]: 50%

SMILES: Cl.N=C(NC(=N)N1CCCCC1)Nc1ccc(OC(F)(F)F)cc1 [Example 33, N1-piperidine-N5-(4-trifluoromethoxy)phenyl biguanide hydrochloride]
inhibition at 100 µM ([1]; Homo sapiens, 48 hours): 97.9%
GI50 ([1]; Homo sapiens, HCT-116, 48 h): 7.9 µM
melting point: 277.3 °C
AMPK activation effect at 10 μM (%) [2]: 538%
AMPK activation effect AC150 [2]: 1.4 µM
Solubility in water (%), hydrochloride salt [3, 4]: 50%

SMILES: Cl.N=C(NC(=N)N1CCCCC1)Nc1cc(Cl)cc(OC(F)(F)F)c1 [Example 65, N1-piperidine-N5-(3-chloro-5-trifluoromethoxy)phenyl biguanide hydrochloride]
inhibition at 100 µM ([1]; Homo sapiens, 48 hours): 97.3%
GI50 ([1]; Homo sapiens, HCT-116, 48 h): 3.6 µM
melting point: 208 to 209 °C
AMPK activation effect AC150 [2]: 5.0 µM

SMILES: Cl.N=C(NC(=N)N1CCCC1)Nc1cc(Br)cc(OC(F)(F)F)c1 [Example 66, N1-pyrrolidine-N5-(3-bromo-5-trifluoromethoxy)phenyl biguanide hydrochloride]
inhibition at 100 µM ([1]; Homo sapiens, 48 hours): 97.6%
GI50 ([1]; Homo sapiens, HCT-116, 48 h): 6.8 µM
melting point: 241 to 242 °C
AMPK activation effect at 10 μM (%) [2]: 521%
AMPK activation effect AC150 [2]: 5.0 µM

SMILES: Cl.N=C(NC(=N)N1CCCCC1)Nc1cc(Br)cc(OC(F)(F)F)c1 [Example 67, N1-piperidine-N5-(3-bromo-5-trifluoromethoxy)phenyl biguanide hydrochloride]
inhibition at 100 µM ([1]; Homo sapiens, 48 hours): 97.1%
GI50 ([1]; Homo sapiens, HCT-116, 48 h): 2.9 µM
melting point: 205 to 207 °C
AMPK activation effect AC150 [2]: 5.0 µM

SMILES: Cl.N=C(NC(=N)N1CCCCC1)Nc1cc(F)c(F)c(F)c1 [Example 68, N1-piperidine-N5-(3,4,5-trifluoro)phenyl biguanide hydrochloride]
inhibition at 100 µM ([1]; Homo sapiens, 48 hours): 97.6%
GI50 ([1]; Homo sapiens, HCT-116, 48 h): 13.8 µM
melting point: 248 to 249 °C
AMPK activation effect at 10 μM (%) [2]: 197%
AMPK activation effect AC150 [2]: 7.2 µM

SMILES: Cl.N=C(NC(=N)N1CCCCC1)Nc1c(F)cc(F)cc1F [Example 69, N1-piperidine-N5-(2,4,6-trifluoro)phenyl biguanide hydrochloride]
inhibition at 100 µM ([1]; Homo sapiens, 48 hours): 21.5%
GI50 ([1]; Homo sapiens, HCT-116, 48 h): > 100 µM
melting point: 243 to 244 °C
AMPK activation effect at 10 μM (%) [2]: 131%
AMPK activation effect at 50 μM (%) [2]: 156%
AMPK activation effect AC150 [2]: 42.0 µM

SMILES: N=C(NC(=N)N1CCCC1)Nc1ccc(C(F)(F)F)cc1 [Example 70, N1-pyrrolidine-N5-(4-trifluoromethyl)phenyl biguanide acetate]
GI50 ([1]; 48 hours): 5.2 µM
AMPK activation effect at 10 μM (%) [2]: 554%
AMPK activation effect AC150 [2]: 2.0 µM
Solubility in water (%), acetate salt [3, 4]: 100%
Solubility in water (%), acetate salt [3, 5]: 100%
Solubility in water (%), acetate salt [3, 6]: 100%
Solubility in water (%), acetate salt [3, 7]: 100%
Solubility in water (%), acetate salt [3, 8]: 100%
Solubility in water (%), acetate salt [3, 9]: 50%

SMILES: N=C(NC(=N)N1CCCCC1)Nc1ccc(C(F)(F)F)cc1 [Example 71, N1-piperidine-N5-(4-trifluoromethyl)phenyl biguanide acetate]
AMPK activation effect at 10 μM (%) [2]: 313%
AMPK activation effect AC150 [2]: 2.3 µM
Solubility in water (%), acetate salt [3, 4]: 100%
Solubility in water (%), acetate salt [3, 5]: 50%

SMILES: N=C(NC(=N)N1CCCC1)Nc1ccc(OC(F)(F)F)cc1 [Example 72, N1-pyrrolidine-N5-(4-trifluoromethoxy)phenyl biguanide acetate]
AMPK activation effect at 10 μM (%) [2]: 186%
AMPK activation effect at 50 μM (%) [2]: 938%
AMPK activation effect AC150 [2]: 4.6 µM
Solubility in water (%), acetate salt [3, 4]: 100%
Solubility in water (%), acetate salt [3, 5]: 100%
Solubility in water (%), acetate salt [3, 6]: 100%
Solubility in water (%), acetate salt [3, 7]: 100%
Solubility in water (%), acetate salt [3, 8]: 100%
Solubility in water (%), acetate salt [3, 9]: 50%

SMILES: N=C(NC(=N)N1CCCCC1)Nc1ccc(OC(F)(F)F)cc1 [Example 73, N1-piperidine-N5-(4-trifluoromethoxy)phenyl biguanide acetate]
AMPK activation effect at 10 μM (%) [2]: 270%
AMPK activation effect at 50 μM (%) [2]: 747%
AMPK activation effect AC150 [2]: 0.3 µM
Solubility in water (%), acetate salt [3, 4]: 100%
Solubility in water (%), acetate salt [3, 5]: 100%
Solubility in water (%), acetate salt [3, 6]: 100%
Solubility in water (%), acetate salt [3, 7]: 20%

The next lines start with results.

GI50 ([1]; Homo sapiens, HCT-116, 48 h): 9.3 µM
melting point: 253 to 254 °C
Solubility in water (%), hydrochloride salt [3, 4]: 80%
SMILES: Cl.N=C(NC(=N)N1CCCC1)Nc1ccc(C(F)(F)F)c(F)c1 [Example 48, N1-pyrrolidine-N5-(3-fluoro-4-trifluoromethyl)phenyl biguanide hydrochloride]
inhibition at 100 µM ([1]; Homo sapiens, 48 hours): 101%
AMPK activation effect at 10 μM (%) [2]: 299%
AMPK activation effect AC150 [2]: 2.5 µM

GI50 ([1]; Homo sapiens, HCT-116, 48 h): 5.2 µM
melting point: 263 to 264 °C
Solubility in water (%), hydrochloride salt [3, 4]: 20%
SMILES: Cl.N=C(NC(=N)N1CCCCC1)Nc1ccc(C(F)(F)F)c(F)c1 [Example 49, N1-piperidine-N5-(3-fluoro-4-trifluoromethyl)phenyl biguanide hydrochloride]
inhibition at 100 µM ([1]; Homo sapiens, 48 hours): 96.5%
AMPK activation effect at 10 μM (%) [2]: 258%
AMPK activation effect AC150 [2]: 2.7 µM

GI50 ([1]; Homo sapiens, HCT-116, 48 h): 7.6 µM
melting point: 278 to 279 °C
Solubility in water (%), hydrochloride salt [3, 4]: 20%
SMILES: Cl.N=C(NC(=N)N1CCCC1)Nc1ccc(OC(F)(F)F)c(F)c1 [Example 53, N1-pyrrolidine-N5-(3-fluoro-4-trifluoromethoxy)phenyl biguanide hydrochloride]
inhibition at 100 µM ([1]; Homo sapiens, 48 hours): 101%
AMPK activation effect at 10 μM (%) [2]: 315%
AMPK activation effect AC150 [2]: 5.0 µM

Solubility in water (%), acetate salt [3, 4]: 100%
Solubility in water (%), acetate salt [3, 5]: 100%
Solubility in water (%), acetate salt [3, 6]: 100%
Solubility in water (%), acetate salt [3, 7]: 50%
SMILES: N=C(NC(=N)N1CCCC1)Nc1ccc(C(F)(F)F)c(F)c1 [Example 74, N1-pyrrolidine-N5-(3-fluoro-4-trifluoromethyl)phenyl biguanide acetate]
AMPK activation effect at 10 μM (%) [2]: 461%
AMPK activation effect AC150 [2]: 3.4 µM

Solubility in water (%), acetate salt [3, 4]: 70%
SMILES: N=C(NC(=N)N1CCCCC1)Nc1ccc(C(F)(F)F)c(F)c1 [Example 75, N1-piperidine-N5-(3-fluoro-4-trifluoromethyl)phenyl biguanide acetate]
AMPK activation effect at 10 μM (%) [2]: 710%
AMPK activation effect AC150 [2]: 2.0 µM

Solubility in water (%), acetate salt [3, 4]: 100%
Solubility in water (%), acetate salt [3, 5]: 100%
Solubility in water (%), acetate salt [3, 6]: 70%
SMILES: N=C(NC(=N)N1CCCC1)Nc1ccc(OC(F)(F)F)c(F)c1 [Example 76, N1-pyrrolidine-N5-(3-fluoro-4-trifluoromethoxy)phenyl biguanide acetate]
AMPK activation effect at 10 μM (%) [2]: 341%
AMPK activation effect AC150 [2]: 1.3 µM

Solubility in water (%), acetate salt [3, 4]: 100%
Solubility in water (%), acetate salt [3, 5]: 50%
SMILES: N=C(NC(=N)N1CCCCC1)Nc1ccc(OC(F)(F)F)c(F)c1 [Example 77, N1-piperidine-N5-(3-fluoro-4-trifluoromethoxy)phenyl biguanide acetate]
